What all share (assay): Kinase panel (140 human kinases)
Holding throughout (type): biochemical

In one assay the target is PDGFRA (Homo sapiens, UniProt P16234). In short, it runs like this:
(§1)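 Duplicate radiometric filter-binding measurements with [γ-^33P]ATP gave percent residual activity, mean and SD. Tested concentrations: 0.1 μM and, for BAY-3827, 1 μM. ATP set per kinase to 5, 20 or 50 μM, not above Km.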

In another assay the target is CK1δ (Homo sapiens, UniProt P48730). In short, it runs like this:
as §1

Another assay has as its target MELK (Homo sapiens, UniProt Q14680). In short, it runs like this: as §1
For a further assay, the target named is T1, NUAK1 (Homo sapiens, UniProt O60285).
T1 sequence (O60285 1-661): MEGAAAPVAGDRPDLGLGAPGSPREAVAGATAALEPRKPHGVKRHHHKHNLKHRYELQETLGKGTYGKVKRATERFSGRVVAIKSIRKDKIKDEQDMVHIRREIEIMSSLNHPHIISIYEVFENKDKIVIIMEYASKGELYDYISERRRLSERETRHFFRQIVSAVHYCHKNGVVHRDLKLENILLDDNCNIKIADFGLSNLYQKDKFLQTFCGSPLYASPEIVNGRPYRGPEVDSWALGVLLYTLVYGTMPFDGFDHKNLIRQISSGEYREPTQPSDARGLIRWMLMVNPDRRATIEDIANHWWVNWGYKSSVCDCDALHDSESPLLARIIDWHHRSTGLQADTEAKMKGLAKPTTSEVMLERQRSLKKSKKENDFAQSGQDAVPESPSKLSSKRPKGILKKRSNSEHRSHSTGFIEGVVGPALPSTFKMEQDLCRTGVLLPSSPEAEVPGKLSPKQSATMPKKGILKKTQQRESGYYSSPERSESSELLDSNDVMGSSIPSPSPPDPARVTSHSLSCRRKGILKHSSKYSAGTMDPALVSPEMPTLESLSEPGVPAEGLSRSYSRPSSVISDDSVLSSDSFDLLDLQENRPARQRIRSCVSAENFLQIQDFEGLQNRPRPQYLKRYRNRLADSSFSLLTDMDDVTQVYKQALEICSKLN
In short, it runs like this: as §1

The target in the next assay is DYRK3 (Homo sapiens, UniProt O43781). In short, it runs like this:
as §1

In another assay the target is TrkA (Homo sapiens, UniProt P04629). In short, it runs like this:
as §1

Another assay deals with Src (Homo sapiens, UniProt P12931). In short, it runs like this:
as §1

In a further assay the target is MLK3 (Homo sapiens, UniProt Q16584). In short, it runs like this: as §1
Another assay deals with MARK4 (Homo sapiens, UniProt Q96L34). In short, it runs like this:
as §1

For another assay, the target named is PHK. Conditions: 0.1 μM. In short, it runs like this:
as §1

The next assay deals with PIM1 (Homo sapiens, UniProt P11309). In short, it runs like this:
as §1

The target in a further assay is CLK2 (Homo sapiens, UniProt P49760). In short, it runs like this: as §1
For a further assay, the target named is T2, ULK1 (Homo sapiens, UniProt O75385).
T2 sequence (O75385 1-1050): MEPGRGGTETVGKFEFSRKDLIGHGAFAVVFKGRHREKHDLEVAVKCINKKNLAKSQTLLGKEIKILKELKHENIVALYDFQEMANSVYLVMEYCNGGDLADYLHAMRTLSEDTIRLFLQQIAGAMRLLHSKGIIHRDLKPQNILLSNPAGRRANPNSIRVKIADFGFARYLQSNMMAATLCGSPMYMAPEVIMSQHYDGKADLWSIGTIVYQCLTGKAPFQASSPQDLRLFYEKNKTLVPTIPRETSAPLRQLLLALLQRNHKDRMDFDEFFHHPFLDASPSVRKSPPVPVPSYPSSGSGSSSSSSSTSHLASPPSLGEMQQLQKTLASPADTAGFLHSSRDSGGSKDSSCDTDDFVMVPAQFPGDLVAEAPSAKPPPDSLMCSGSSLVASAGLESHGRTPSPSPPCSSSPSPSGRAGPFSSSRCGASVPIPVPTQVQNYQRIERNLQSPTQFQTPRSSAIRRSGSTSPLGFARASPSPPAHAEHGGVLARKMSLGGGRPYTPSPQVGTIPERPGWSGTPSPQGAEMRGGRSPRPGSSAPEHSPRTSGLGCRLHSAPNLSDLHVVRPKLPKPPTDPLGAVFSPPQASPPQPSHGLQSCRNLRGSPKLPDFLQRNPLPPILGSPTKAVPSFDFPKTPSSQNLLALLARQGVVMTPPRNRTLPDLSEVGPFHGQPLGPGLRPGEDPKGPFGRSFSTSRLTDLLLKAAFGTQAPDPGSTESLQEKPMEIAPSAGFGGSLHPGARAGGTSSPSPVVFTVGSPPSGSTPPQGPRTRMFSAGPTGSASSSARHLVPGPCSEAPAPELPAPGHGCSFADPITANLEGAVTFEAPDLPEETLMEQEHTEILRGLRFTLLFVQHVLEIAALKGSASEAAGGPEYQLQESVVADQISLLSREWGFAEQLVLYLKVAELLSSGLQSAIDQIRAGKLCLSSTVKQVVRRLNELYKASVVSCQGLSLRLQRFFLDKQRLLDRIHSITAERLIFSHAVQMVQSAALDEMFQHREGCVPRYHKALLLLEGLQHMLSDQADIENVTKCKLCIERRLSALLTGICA
In short, it runs like this: as §1

Where [1] appears, read: 1 μM, cross-referenced with screen data of ref 37, read-out: activity remaining after treatment.

A word on the remaining activity: it is the signal under treatment as a percentage of the control signal. As a reminder, the inhibition is how much of the control response was suppressed. Read a high inhibition as a strong effect.

Sequence of MELK (Q14680 whole entry): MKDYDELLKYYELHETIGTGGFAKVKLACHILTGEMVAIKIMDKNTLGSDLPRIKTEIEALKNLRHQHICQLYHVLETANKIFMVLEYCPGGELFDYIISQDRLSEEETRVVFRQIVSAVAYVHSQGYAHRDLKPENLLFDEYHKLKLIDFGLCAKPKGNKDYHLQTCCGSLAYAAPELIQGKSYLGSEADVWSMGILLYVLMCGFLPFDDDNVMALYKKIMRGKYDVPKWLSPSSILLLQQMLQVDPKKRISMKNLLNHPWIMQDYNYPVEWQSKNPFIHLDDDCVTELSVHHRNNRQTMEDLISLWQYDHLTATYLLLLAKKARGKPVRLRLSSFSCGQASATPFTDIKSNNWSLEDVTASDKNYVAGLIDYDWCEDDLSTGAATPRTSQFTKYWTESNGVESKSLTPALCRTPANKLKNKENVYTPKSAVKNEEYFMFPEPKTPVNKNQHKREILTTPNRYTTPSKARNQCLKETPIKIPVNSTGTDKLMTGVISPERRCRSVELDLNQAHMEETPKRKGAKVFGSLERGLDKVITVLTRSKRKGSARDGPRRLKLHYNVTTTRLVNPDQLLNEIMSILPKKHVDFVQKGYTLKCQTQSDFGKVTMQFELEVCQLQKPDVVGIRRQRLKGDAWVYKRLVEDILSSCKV
Sequence of CLK2 (P49760 whole entry): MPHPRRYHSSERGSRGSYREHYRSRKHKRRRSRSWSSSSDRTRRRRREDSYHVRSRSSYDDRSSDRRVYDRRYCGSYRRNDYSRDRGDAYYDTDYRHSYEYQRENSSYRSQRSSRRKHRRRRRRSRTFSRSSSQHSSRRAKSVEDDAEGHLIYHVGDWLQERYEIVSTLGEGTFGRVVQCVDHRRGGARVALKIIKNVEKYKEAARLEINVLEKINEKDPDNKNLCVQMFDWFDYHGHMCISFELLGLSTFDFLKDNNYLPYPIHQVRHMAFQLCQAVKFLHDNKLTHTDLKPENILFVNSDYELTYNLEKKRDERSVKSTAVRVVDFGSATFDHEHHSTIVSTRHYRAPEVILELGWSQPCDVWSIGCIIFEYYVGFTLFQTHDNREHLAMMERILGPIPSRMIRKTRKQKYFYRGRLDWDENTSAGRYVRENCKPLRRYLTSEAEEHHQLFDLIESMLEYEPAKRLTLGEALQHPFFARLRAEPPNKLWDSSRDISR
Sequence of DYRK3 (O43781 whole entry): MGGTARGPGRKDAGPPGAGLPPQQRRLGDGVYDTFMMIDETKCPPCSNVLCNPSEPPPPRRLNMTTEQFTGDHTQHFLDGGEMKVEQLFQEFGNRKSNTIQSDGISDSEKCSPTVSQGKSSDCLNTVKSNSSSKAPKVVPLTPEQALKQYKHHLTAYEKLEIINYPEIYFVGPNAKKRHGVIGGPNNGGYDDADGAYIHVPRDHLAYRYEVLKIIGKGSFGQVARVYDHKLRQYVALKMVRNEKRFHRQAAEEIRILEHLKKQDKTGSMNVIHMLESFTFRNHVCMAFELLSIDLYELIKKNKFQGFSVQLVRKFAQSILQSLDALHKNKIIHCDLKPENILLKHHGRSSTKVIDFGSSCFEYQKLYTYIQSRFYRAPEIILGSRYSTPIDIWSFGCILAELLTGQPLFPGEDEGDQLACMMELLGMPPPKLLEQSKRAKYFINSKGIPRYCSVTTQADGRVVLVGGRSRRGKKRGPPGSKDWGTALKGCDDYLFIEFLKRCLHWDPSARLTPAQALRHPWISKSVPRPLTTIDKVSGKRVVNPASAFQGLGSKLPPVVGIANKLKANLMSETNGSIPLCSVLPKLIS
Sequence of PIM1 (P11309 whole entry): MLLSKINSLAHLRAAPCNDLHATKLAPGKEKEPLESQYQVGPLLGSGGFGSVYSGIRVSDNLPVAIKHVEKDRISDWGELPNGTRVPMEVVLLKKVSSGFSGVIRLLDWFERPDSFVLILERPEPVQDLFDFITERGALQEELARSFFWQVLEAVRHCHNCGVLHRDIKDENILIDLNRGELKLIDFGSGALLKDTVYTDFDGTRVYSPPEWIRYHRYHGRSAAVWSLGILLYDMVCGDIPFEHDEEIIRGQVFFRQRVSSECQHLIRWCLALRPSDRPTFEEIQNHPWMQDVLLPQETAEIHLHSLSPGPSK
Sequence of Src (P12931 whole entry): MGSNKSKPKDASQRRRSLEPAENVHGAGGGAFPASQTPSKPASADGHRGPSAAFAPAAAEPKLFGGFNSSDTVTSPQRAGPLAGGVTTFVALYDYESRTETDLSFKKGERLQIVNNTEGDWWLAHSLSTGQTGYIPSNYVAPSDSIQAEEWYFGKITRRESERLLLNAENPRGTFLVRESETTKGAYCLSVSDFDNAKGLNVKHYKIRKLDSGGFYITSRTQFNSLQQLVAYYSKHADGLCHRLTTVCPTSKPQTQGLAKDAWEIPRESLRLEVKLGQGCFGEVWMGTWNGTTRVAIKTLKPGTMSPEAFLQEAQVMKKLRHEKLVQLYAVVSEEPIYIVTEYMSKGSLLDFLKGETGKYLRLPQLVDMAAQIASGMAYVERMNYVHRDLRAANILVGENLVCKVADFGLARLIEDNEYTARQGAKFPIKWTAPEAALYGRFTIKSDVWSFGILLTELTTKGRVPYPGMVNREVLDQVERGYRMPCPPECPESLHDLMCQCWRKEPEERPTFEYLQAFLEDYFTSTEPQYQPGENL
Sequence of TrkA (P04629 33-796): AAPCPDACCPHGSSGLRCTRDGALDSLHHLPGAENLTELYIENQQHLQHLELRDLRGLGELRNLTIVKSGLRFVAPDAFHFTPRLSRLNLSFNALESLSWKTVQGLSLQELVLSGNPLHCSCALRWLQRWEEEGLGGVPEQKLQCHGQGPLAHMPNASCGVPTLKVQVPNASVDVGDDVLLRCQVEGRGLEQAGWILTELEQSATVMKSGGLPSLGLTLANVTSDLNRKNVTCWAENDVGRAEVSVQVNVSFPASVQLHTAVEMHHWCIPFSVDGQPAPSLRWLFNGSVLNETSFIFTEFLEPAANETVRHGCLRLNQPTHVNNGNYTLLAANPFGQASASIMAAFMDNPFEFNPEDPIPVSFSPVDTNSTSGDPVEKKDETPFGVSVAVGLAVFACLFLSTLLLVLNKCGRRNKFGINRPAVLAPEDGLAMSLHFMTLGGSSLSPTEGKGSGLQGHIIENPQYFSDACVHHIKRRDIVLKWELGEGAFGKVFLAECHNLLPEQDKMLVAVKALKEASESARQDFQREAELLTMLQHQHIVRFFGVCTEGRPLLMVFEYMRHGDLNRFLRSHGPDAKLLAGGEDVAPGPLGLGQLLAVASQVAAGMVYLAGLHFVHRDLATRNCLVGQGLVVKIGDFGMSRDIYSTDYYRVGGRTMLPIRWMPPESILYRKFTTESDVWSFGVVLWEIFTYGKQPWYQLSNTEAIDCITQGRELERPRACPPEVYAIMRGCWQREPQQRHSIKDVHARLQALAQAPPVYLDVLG
Sequence of PDGFRA (P16234 24-1089): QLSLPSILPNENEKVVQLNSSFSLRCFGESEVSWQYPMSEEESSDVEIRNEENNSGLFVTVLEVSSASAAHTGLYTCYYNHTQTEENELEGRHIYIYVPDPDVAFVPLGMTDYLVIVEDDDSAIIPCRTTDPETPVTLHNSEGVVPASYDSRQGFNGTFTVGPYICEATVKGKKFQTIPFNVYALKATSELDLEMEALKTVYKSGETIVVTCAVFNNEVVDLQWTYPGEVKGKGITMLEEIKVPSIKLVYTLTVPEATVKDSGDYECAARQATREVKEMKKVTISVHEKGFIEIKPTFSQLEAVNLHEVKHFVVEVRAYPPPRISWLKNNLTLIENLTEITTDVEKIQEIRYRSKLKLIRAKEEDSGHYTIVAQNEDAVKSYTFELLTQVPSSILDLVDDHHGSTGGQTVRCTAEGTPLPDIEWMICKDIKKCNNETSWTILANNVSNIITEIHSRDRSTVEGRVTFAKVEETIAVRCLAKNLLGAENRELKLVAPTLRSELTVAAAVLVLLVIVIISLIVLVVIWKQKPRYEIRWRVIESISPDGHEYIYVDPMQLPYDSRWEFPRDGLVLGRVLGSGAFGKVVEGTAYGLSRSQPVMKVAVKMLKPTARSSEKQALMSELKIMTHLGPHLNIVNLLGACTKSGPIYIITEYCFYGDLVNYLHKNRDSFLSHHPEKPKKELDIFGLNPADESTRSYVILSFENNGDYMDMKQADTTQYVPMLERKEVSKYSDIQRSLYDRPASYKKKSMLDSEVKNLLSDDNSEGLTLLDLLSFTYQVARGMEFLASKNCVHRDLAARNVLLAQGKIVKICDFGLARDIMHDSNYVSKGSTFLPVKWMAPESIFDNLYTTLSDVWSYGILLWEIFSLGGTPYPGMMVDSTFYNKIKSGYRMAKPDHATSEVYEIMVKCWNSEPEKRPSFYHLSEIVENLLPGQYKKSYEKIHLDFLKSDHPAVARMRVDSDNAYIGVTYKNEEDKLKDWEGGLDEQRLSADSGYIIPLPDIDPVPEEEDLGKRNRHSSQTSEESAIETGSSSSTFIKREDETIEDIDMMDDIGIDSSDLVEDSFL
Sequence of CK1δ (P48730 whole entry): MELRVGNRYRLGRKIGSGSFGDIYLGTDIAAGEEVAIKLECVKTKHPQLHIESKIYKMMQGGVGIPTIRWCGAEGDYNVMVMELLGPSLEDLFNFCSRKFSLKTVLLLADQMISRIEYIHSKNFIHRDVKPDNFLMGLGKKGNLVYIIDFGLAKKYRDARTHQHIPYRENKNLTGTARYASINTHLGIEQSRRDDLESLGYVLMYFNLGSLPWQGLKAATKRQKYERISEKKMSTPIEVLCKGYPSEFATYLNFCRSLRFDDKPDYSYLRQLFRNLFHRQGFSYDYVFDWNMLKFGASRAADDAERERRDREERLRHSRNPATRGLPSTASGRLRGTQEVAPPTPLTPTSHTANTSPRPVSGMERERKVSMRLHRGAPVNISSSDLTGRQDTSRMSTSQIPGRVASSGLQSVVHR

For `CC1=C(C#N)C(c2ccc3c(c2)c(NC(=O)c2ccccc2C)nn3C)C(C#N)=C(C)N1` [BAY-974, N-[5-(3,5-dicyano-2,6-dimethyl-1,4-dihydropyridin-4-yl)-1-methylindazol-3-yl]-2-methylbenzamide], the remaining activity at 0.1 µM is 86% on PDGFRA; 116% on CK1δ; 90% at MELK; 60% at NUAK1; 83% at DYRK3; 97% at TrkA. For the same molecule, the remaining activity at 0.1 µM is 92% at Src; 90% at MLK3; 96% at MARK4; 82% at PIM1; 93% at CLK2; at most 50% on ULK1. In addition, the “Kinase activity remaining (%)” value on PHK was determined as 120%. In addition, the inhibition at 0.1 µM at ULK1 was 55 to 90%.

With `CCc1ccccc1C(=O)Nc1n[nH]c2c(C)c(F)c(C3C(C#N)=C(C)N(C)C(C)=C3C#N)cc12` [BAY-3827, N-[5-(3,5-dicyano-1,2,6-trimethyl-4H-pyridin-4-yl)-6-fluoro-7-methyl-1H-indazol-3-yl]-2-ethylbenzamide], the remaining activity at 0.1 µM at PDGFRA was 82%; at CK1δ, 103%; at MELK, 81%; at NUAK1, 68%; at DYRK3 it was 97%; at TrkA, 87%. In addition, the remaining activity at 0.1 µM on Src turned out to be 90%; on MLK3 it was 85%; at MARK4 it was 98%; at PIM1, 86%; on CLK2, 87%; at ULK1, 88%. The remaining activity at 1 µM at MELK (setting [1]) and at NUAK1 (setting [1]) was at most 50% each time. Also, the inhibition of kinase with PHK fell in the range of 80 to 85%.
